Results as given in the kinase profiling compilation of Christmann-Franck et al. (2016).
Several values for one entry are separate records, joined by “and”; a condition that tells them apart may be missing. Equal entries are not always repeated.

What was measured:
Experiment in all cases: Caliper, Mobility shift assay off-chip
MAPK3 (human) = MAPK3 (human) (UniProt P27361)
HCK (human) = HCK (human) (UniProt P08631)
CAMK2B (human) = CAMK2B (human) (UniProt Q13554)
CHEK1 (human) = CHEK1 (human) (UniProt O14757)
FYN (human) = FYN (human) (UniProt P06241); settings: compound 0.1 µM
RPS6KA3 KD1 KD2 (human) = RPS6KA3 KD1 KD2 (human) (UniProt P51812)
[1] = target: PRKAA2 PRKAB1 PRKAG1 (human) (UniProt Q9Y478+P54646+P54619)
FGFR1 (human) = FGFR1 (human) (UniProt P11362)
[2] = system: KIT (human), P10721 [T670I]
FGFR2 (human) = FGFR2 (human) (UniProt P21802)
[3] = system: ABL1 (human), P00519 [H396P]
PRKG1 (human) = PRKG1 (human) (UniProt Q13976)
SGK1 (human) = SGK1 (human) (UniProt O00141)
PRKD1 (human) = PRKD1 (human) (UniProt Q15139)
NTRK3 (human) = NTRK3 (human) (UniProt Q16288)
GSK3B (human) = GSK3B (human) (UniProt P49841)
JAK2 JH1 JH2 (human) = JAK2 JH1 JH2 (human) (UniProt O60674)
ROCK2 (human) = ROCK2 (human) (UniProt O75116)
PHKG1 (human) = PHKG1 (human) (UniProt Q16816)
TSSK1B (human) = TSSK1B (human) (UniProt Q9BXA7)
[4] = system: RET (human), P07949 [Y791F]
LCK (human) = LCK (human) (UniProt P06239)
RAF1 (human) = RAF1 (human) (UniProt P04049)
DYRK1A (human) = DYRK1A (human) (UniProt Q13627)
PRKCG (human) = PRKCG (human) (UniProt P05129)
CHEK2 (human) = CHEK2 (human) (UniProt O96017)
INSR (human) = INSR (human) (UniProt P06213)
AURKA (human) = AURKA (human) (UniProt O14965)
PRKD2 (human) = PRKD2 (human) (UniProt Q9BZL6)
MAPK1 (human) = MAPK1 (human) (UniProt P28482)
FGFR3 (human) = FGFR3 (human) (UniProt P22607)
CAMK4 (human) = CAMK4 (human) (UniProt Q16566)
PHKG2 (human) = PHKG2 (human) (UniProt P15735)
PHKG2 (human), sequence (P15735 whole entry, looked up): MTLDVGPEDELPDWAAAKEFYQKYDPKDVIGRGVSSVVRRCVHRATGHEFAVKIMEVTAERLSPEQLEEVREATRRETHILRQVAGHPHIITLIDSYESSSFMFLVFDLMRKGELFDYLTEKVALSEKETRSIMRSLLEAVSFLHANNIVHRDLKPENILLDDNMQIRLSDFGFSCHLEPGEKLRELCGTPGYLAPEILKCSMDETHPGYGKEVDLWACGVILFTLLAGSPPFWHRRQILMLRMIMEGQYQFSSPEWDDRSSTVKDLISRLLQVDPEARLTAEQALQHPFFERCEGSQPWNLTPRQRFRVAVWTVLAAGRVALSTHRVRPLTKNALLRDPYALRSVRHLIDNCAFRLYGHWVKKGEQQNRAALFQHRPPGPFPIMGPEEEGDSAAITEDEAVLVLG

PRKG1 (human), sequence (Q13976 whole entry, looked up): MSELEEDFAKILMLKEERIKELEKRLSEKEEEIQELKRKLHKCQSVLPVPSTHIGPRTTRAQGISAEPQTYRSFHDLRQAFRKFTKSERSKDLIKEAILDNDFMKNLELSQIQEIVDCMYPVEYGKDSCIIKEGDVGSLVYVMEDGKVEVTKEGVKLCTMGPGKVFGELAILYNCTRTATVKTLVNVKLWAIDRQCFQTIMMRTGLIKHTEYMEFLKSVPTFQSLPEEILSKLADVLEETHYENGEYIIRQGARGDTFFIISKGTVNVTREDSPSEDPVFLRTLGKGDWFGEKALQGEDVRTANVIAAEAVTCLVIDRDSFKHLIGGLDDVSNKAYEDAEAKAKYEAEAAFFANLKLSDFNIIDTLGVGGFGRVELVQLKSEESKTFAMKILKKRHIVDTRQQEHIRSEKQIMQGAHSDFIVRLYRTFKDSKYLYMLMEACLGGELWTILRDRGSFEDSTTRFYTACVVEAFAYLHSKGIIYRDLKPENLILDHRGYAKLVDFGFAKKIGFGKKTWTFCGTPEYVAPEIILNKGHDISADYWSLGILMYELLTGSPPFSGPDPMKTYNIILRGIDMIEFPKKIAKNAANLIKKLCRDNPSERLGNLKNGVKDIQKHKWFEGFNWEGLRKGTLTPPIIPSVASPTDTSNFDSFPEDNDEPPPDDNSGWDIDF
GSK3B (human), sequence (P49841 whole entry, looked up): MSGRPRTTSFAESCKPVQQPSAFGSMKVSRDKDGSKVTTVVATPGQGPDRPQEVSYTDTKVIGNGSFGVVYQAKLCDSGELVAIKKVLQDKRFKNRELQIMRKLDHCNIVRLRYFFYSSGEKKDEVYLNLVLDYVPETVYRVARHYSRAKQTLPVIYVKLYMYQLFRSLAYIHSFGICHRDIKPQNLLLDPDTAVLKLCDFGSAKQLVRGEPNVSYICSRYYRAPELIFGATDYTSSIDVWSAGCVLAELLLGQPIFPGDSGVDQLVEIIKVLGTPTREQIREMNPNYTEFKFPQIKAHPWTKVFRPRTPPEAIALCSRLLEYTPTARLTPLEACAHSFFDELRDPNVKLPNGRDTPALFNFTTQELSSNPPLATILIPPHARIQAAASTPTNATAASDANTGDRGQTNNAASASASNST
RAF1 (human), sequence (P04049 whole entry, looked up): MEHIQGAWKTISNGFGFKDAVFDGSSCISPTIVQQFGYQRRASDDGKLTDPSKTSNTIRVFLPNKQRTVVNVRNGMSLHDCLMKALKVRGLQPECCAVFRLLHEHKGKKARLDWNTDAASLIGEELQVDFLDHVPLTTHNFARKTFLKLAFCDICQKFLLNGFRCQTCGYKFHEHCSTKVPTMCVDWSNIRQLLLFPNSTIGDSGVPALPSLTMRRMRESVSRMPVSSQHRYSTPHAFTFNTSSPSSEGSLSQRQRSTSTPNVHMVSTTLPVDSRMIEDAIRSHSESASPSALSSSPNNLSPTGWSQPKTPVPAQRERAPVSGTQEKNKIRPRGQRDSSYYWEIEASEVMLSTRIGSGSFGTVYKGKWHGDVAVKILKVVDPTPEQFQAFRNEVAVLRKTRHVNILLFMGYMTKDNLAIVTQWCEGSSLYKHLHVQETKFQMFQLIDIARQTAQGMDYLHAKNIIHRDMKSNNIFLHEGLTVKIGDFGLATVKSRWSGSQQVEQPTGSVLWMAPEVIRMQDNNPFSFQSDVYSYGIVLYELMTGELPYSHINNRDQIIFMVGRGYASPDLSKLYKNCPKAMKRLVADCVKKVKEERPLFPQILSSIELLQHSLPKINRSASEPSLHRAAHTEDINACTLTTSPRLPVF
INSR (human), sequence (P06213 whole entry, looked up): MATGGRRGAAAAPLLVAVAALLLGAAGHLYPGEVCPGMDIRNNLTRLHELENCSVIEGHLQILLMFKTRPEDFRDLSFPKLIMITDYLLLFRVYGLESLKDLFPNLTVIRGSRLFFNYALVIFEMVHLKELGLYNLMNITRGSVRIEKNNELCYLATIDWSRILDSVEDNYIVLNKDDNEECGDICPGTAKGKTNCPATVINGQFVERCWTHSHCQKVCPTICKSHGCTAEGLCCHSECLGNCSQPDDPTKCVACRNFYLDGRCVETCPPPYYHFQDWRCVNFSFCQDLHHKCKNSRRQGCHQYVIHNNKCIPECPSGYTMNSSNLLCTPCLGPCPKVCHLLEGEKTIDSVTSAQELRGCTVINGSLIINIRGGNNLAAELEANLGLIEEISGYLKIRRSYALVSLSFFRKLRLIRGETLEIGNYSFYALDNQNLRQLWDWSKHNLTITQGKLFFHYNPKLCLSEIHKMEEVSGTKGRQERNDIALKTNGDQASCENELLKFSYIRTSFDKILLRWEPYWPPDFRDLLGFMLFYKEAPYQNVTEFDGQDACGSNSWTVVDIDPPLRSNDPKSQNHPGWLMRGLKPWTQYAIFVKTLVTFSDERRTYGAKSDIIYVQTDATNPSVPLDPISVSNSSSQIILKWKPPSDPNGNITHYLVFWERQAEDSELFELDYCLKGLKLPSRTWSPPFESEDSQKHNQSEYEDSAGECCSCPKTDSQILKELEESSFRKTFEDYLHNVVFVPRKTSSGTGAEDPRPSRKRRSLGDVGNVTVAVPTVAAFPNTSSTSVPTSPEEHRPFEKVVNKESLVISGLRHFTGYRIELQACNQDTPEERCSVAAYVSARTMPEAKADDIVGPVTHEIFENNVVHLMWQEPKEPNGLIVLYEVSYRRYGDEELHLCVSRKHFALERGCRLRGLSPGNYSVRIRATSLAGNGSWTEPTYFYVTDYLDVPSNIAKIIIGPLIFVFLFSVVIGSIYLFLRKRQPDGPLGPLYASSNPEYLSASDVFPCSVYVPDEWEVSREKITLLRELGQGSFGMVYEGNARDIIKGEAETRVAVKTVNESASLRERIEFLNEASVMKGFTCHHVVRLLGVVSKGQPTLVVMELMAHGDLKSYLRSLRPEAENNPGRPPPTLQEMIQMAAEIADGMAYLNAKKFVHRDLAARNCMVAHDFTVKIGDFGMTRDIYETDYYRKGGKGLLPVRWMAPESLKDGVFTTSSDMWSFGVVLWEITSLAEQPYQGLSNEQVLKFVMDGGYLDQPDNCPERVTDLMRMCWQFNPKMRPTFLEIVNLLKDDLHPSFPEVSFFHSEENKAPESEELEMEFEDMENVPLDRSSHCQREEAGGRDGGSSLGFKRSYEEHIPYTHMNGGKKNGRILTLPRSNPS
PHKG1 (human), sequence (Q16816 whole entry, looked up): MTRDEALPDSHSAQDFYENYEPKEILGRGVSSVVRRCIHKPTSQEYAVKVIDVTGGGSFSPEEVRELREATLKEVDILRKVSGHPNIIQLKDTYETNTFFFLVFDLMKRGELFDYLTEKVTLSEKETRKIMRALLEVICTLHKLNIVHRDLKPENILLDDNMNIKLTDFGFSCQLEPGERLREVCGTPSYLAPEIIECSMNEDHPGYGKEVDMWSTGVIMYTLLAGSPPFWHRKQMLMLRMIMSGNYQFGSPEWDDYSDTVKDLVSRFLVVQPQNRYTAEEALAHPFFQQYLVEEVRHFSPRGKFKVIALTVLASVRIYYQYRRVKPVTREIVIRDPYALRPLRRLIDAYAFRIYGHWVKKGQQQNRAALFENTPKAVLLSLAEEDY
KIT (human), P10721 [T670I], sequence (P10721 whole entry T670I, looked up): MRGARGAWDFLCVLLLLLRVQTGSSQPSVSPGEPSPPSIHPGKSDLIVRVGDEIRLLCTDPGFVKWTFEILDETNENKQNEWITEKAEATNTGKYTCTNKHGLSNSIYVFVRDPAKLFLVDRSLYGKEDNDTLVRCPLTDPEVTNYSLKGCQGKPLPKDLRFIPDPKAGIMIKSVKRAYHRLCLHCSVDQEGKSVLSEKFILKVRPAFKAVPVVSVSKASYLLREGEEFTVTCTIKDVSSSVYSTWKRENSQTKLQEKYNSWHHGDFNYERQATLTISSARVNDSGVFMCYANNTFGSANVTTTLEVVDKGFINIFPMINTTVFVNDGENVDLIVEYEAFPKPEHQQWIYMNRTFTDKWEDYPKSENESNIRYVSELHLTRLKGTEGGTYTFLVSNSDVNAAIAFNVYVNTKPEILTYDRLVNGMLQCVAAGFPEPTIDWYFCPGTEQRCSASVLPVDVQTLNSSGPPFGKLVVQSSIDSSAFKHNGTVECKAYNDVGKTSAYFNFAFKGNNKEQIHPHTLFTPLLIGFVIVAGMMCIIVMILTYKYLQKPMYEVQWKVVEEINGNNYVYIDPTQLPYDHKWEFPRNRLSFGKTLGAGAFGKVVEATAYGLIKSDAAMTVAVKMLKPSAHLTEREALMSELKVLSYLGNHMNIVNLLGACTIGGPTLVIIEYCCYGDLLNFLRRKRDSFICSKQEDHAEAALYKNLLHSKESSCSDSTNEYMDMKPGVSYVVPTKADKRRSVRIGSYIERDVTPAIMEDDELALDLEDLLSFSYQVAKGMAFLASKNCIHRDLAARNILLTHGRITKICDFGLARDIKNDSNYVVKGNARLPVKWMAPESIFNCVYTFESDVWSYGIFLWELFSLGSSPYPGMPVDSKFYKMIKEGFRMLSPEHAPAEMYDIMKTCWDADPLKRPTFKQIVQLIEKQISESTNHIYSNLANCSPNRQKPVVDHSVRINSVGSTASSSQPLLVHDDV

## CN(c1ccc2ccc3ncc(-c4cnn(C)c4)cc3c(=O)c2c1)S(=O)(=O)NCc1ccccn1
MAPK3 (human); compound 0.1 µM
  inhibition: 0.9%
MAPK3 (human); compound 1.0 µM
  inhibition: -7.3%
HCK (human); compound 0.1 µM
  inhibition: 9.4%
HCK (human); compound 1.0 µM
  inhibition: 14.6%
CAMK2B (human); compound 0.1 µM
  inhibition: 5.9%
CAMK2B (human); compound 1.0 µM
  inhibition: 12.1%
CHEK1 (human); compound 0.1 µM
  inhibition: 3.6%
CHEK1 (human); compound 1.0 µM
  inhibition: 2.6%
FYN (human)
  inhibition: -0.3%
RPS6KA3 KD1 KD2 (human); compound 0.1 µM
  inhibition: -1.9%
RPS6KA3 KD1 KD2 (human); compound 1.0 µM
  inhibition: 12.9%
[1]; compound 0.1 µM
  inhibition: 3.4%
[1]; compound 1.0 µM
  inhibition: 17.6%
FGFR1 (human); compound 0.1 µM
  inhibition: -11.4%
FGFR1 (human); compound 1.0 µM
  inhibition: 26.7%
[2]; compound 0.1 µM
  inhibition: 0.2%
[2]; compound 1.0 µM
  inhibition: 21.4%
FGFR2 (human); compound 0.1 µM
  inhibition: 29.4%
FGFR2 (human); compound 1.0 µM
  inhibition: 76.6%
[3]; compound 0.1 µM
  inhibition: -1.8%
[3]; compound 1.0 µM
  inhibition: 42.1%
PRKG1 (human); compound 0.1 µM
  inhibition: 8.1% and 4.1%
PRKG1 (human); compound 1.0 µM
  inhibition: 11.8% and 4.9%
SGK1 (human); compound 0.1 µM
  inhibition: -0.4%
SGK1 (human); compound 1.0 µM
  inhibition: 6.4%
PRKD1 (human); compound 0.1 µM
  inhibition: -0.4%
PRKD1 (human); compound 1.0 µM
  inhibition: 1.9%
NTRK3 (human); compound 0.1 µM
  inhibition: 39.3%
NTRK3 (human); compound 1.0 µM
  inhibition: 83.6%
GSK3B (human); compound 0.1 µM
  inhibition: -6.8%
GSK3B (human); compound 1.0 µM
  inhibition: 4.8%
JAK2 JH1 JH2 (human); compound 0.1 µM
  inhibition: -35.1%
JAK2 JH1 JH2 (human); compound 1.0 µM
  inhibition: 41.2%
ROCK2 (human); compound 0.1 µM
  inhibition: 21.3%
ROCK2 (human); compound 1.0 µM
  inhibition: 20.8%
PHKG1 (human); compound 0.1 µM
  inhibition: -1.3%
PHKG1 (human); compound 1.0 µM
  inhibition: 17.4%
TSSK1B (human); compound 0.1 µM
  inhibition: -4.8%
TSSK1B (human); compound 1.0 µM
  inhibition: 8.1%
[4]; compound 0.1 µM
  inhibition: 10.2%
[4]; compound 1.0 µM
  inhibition: 43.4%
LCK (human); compound 0.1 µM
  inhibition: -3.5%
LCK (human); compound 1.0 µM
  inhibition: 11.3%
RAF1 (human); compound 0.1 µM
  inhibition: -6.5%
RAF1 (human); compound 1.0 µM
  inhibition: -0.8%
DYRK1A (human); compound 0.1 µM
  inhibition: 7.9%
DYRK1A (human); compound 1.0 µM
  inhibition: 40.1%
PRKCG (human); compound 0.1 µM
  inhibition: -8.6%
PRKCG (human); compound 1.0 µM
  inhibition: -6.9%
CHEK2 (human); compound 0.1 µM
  inhibition: -1.5%
CHEK2 (human); compound 1.0 µM
  inhibition: 6.9%
INSR (human); compound 0.1 µM
  inhibition: 3.4%
INSR (human); compound 1.0 µM
  inhibition: -0.3%
AURKA (human); compound 0.1 µM
  inhibition: 39.7%
AURKA (human); compound 1.0 µM
  inhibition: 87.5%
PRKD2 (human); compound 0.1 µM
  inhibition: 5.7%
PRKD2 (human); compound 1.0 µM
  inhibition: -9.6%
MAPK1 (human); compound 0.1 µM
  inhibition: -4%
MAPK1 (human); compound 1.0 µM
  inhibition: 1.8%
FGFR3 (human); compound 0.1 µM
  inhibition: 26.3%
FGFR3 (human); compound 1.0 µM
  inhibition: 81%
CAMK4 (human); compound 0.1 µM
  inhibition: -0.2%
CAMK4 (human); compound 1.0 µM
  inhibition: 8%
PHKG2 (human); compound 0.1 µM
  inhibition: 17.8%
PHKG2 (human); compound 1.0 µM
  inhibition: 12.7%
